“Also recorded” adds a separate entry of the source. Where two headings read alike, the source gives them in different places.
Key:
vaccinia capping enzyme = vaccinia capping enzyme (Vaccinia virus, UniProt P04298); assay type: biochemical
[1] = biological target: RNA guanyltransferase activity of the vaccinia capping enzyme system (Vaccinia virus, UniProt P04298); conditions: cited from earlier work
[2] = system: rabbit reticulocyte lysate; assay type: biochemical; conditions: rabbit reticulocyte lysate
wheat germ lysate = assay type: biochemical; conditions: wheat germ lysate, poly(A)-tailed Renilla luciferase RNA, cap I structure
BDCM cells = assay type: cell-based; conditions: poly(A)-tailed Renilla luciferase RNA

SMILES | substrate for the capping enzyme system (51-base primary RNA transcript converted into 52-base capped RNA) (vaccinia capping enzyme) | use in place of GTP in an in vitro capping reaction [1] | further results
[N-]=[N+]=N[C@H]1C[C@H](n2cnc3c(=O)[nH]c(N)nc32)O[C@@H]1COP(=O)(O)OP(=O)(O)OP(=O)(O)O [3′-azido-2′,3′-ddGTP, 3′-azido-2′,3′-dideoxyguanosine-5′-triphosphate] | substrates for the capping enzyme system |  | 
Nc1nc2c(ncn2[C@@H]2O[C@H](COP(=O)(O)O)[C@@H](O)[C@H]2O)c(=O)[nH]1 [GMP] |  | could not be used in place of GTP | 
O=c1[nH]cnc2c1ncn2[C@@H]1O[C@H](COP(=O)(O)OP(=O)(O)OP(=O)(O)O)[C@@H](O)[C@H]1O [ITP] |  | could not be used in place of GTP | 
Nc1nc2c(ncn2[C@@H]2O[C@H](COP(=O)(O)OP(=O)(O)O)[C@@H](O)[C@H]2O)c(=O)[nH]1 [GDP] |  | could not be used in place of GTP | 
Cn1c[n+]([C@@H]2O[C@H](COP(=O)(O)OP(=O)([O-])OP(=O)(O)O)[C@@H](O)[C@H]2O)c2nc(N)[nH]c(=O)c21 [N^7-methyl-GTP, reference compound] | not substrates for the capping enzyme system | could not be used in place of GTP | 
Nc1ccn([C@@H]2O[C@H](COP(=O)(O)OP(=O)(O)OP(=O)(O)O)[C@@H](O)[C@H]2O)c(=O)n1 [CTP] |  | could not be used in place of GTP | 
Nc1nc2c(ncn2[C@@H]2O[C@H](COP(=O)(O)OP(=O)(O)OP(=O)(O)O)C[C@H]2O)c(=O)[nH]1 [3′-dGTP, 3′-deoxyguanosine-5′-triphosphate] |  |  | average relative translation efficiency ([2]; poly(A)-tailed Renilla luciferase RNA, cap 0 structure, GTP-capped cap 0 RNA = 100%): 80%; average relative translation efficiency ([2]; poly(A)-tailed Renilla luciferase RNA, cap I structure): 64%; average relative translation efficiency ([2]; poly(A)-tailed firefly luciferase RNA, cap I structure): 98%; relative translation efficiency (wheat germ lysate): 31%
Nc1nc2c(ccn2[C@@H]2O[C@H](COP(=O)(O)OP(=O)(O)OP(=O)(O)O)[C@@H](O)[C@H]2O)c(=O)[nH]1 [7-deaza-GTP, reference compound] | not substrates for the capping enzyme system |  | 
Nc1nc2c(ncn2[C@H]2CC[C@@H](COP(=O)(O)OP(=O)(O)OP(=O)(O)O)O2)c(=O)[nH]1 [2′,3′-ddGTP, 2′,3′-dideoxy-GTP, reference compound] | not substrates for the capping enzyme system; also recorded: not a substrate for the capping enzyme system |  | 
CO[C@H]1[C@@H](O)[C@H]([n+]2cn(C)c3c(=O)[nH]c(N)nc32)O[C@@H]1COP(=O)([O-])OP(=O)(O)OP(=O)(O)OC[C@H]1O[C@@H](n2cnc3c(=O)[nH]c(N)nc32)[C@H](O)[C@@H]1O [m2^7,3′-OGpppG, reference compound] |  |  | relative translation efficiency (BDCM cells; cap 0 structure, GTP-capped cap 0 RNA = 100%): 130%; relative translation efficiency (BDCM cells; cap I structure, GTP-capped RNA = 100%): 102%
O=c1ccn([C@@H]2O[C@H](COP(=O)(O)OP(=O)(O)OP(=O)(O)O)[C@@H](O)[C@H]2O)c(=O)[nH]1 [UTP] |  | could not be used in place of GTP | 
Nc1nc2c(ncn2[C@H]2C[C@H](N)[C@@H](COP(=O)(O)OP(=O)(O)OP(=O)(O)O)O2)c(=O)[nH]1 [3′-amino-2′,3′-ddGTP, 3′-amino-2′,3′-dideoxyguanosine-5′-triphosphate] | substrates for the capping enzyme system |  | 
Nc1ncnc2c1ncn2[C@@H]1O[C@H](COP(=O)(O)OP(=O)(O)OP(=O)(O)O)[C@@H](O)[C@H]1O [ATP, reference compound] | not substrates for the capping enzyme system | could not be used in place of GTP | 

Reference: US9115380B2, “Kits and methods for generating 5′ capped RNA” (priority 2006, dated 2015)
